Earlier results as cited in patent US9302007B2, “Low surfactant iodine topical disinfectant” (DELAVAL HOLDING AB, priority 2011, dated 2016).

Conditions: room temperature

II
solubility of iodine in water: about 300 ppm
